# Assay results taken from ChEMBL document CHEMBL4622891, “Design, synthesis, and pharmacological evaluation of 2-(4-sulfonylphenyl)-2-[(E)-pyrrolidin-1-ylimino]-N-thiazoleacetamides as glucokinase activators” (Bioorg Med Chem Lett, 2020).
# Target: Voltage-gated inwardly rectifying potassium channel KCNH2 (Homo sapiens, UniProt Q12809)
# Experiment: Inhibition of human ERG
# Chain of Voltage-gated inwardly rectifying potassium channel KCNH2 (Q12809 whole entry): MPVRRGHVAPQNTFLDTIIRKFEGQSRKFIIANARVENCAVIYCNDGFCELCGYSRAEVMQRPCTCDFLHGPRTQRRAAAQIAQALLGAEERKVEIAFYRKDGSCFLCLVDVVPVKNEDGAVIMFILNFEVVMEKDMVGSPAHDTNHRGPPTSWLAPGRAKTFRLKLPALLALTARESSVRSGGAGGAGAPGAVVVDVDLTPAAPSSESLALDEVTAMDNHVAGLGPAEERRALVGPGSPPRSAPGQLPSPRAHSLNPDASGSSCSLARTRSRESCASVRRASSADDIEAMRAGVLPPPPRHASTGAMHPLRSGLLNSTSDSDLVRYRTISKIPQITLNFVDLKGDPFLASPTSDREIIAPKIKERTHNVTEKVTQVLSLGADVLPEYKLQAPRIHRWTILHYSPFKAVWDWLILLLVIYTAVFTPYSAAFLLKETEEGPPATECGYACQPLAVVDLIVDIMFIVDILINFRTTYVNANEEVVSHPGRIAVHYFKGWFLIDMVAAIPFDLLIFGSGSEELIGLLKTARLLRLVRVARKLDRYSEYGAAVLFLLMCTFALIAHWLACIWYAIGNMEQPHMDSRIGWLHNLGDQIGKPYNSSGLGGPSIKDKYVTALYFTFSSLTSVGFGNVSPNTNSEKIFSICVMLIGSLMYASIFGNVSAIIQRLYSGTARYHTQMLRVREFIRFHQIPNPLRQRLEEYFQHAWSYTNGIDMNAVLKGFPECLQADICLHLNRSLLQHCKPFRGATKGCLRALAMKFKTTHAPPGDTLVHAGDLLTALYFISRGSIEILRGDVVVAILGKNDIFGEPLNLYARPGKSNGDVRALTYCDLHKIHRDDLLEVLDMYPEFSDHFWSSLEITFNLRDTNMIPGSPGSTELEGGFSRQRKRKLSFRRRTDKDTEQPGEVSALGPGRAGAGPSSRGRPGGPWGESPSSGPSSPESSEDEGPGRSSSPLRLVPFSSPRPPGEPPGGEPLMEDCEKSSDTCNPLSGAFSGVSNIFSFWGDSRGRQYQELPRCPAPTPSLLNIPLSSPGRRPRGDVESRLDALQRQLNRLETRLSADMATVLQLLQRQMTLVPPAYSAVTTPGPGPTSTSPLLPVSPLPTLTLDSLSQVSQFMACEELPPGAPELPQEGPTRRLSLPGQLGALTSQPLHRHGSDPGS
row,Structure (SMILES),IC50 [µM]
1,CC(=O)N1CCN(Cc2cnc(NC(=O)/C(=N/N3CCCC3)c3ccc(S(=O)(=O)C4CC4)cc3)s2)CC1,> 100
2,Cc1nnc(NC(=O)/C(=N/N2CCCC2)c2ccc(S(=O)(=O)C3CC3)cc2)s1,> 100
3,O=C(Nc1ncc(Cl)s1)/C(=N/N1CCCC1)c1ccc(S(=O)(=O)C2CC2)cc1,16.7
4,O=C(Nc1nccs1)/C(=N/N1CCCC1)c1ccc(S(=O)(=O)C2CC2)cc1,17.5
5,Cc1cnc(NC(=O)/C(=N/N2CCCC2)c2ccc(S(=O)(=O)C3CC3)cc2)s1,> 100
